Results from the NIST ThermoML archive (doi:10.1016/j.jct.2013.06.009).

How the values were obtained:
[1] = wn = mass fraction of the nth substance listed; details: 101.33 kPa, Liquid, w1 = 0.009; for viscosity: Capillary tube (Ostwald / Ubbelohde) method; for mass density: Vibrating tube method
[2] = 101.33 kPa, Liquid; for viscosity: Capillary tube (Ostwald / Ubbelohde) method; for mass density: Vibrating tube method
[3] = mn = molality of the nth substance listed, in mol/kg; details: 101.33 kPa, Liquid, m2 = 0; for viscosity: Capillary tube (Ostwald / Ubbelohde) method; for mass density: Vibrating tube method

[Cl-].[Na+] [sodium chloride] + O
[1]
Details | mass density [kg/m3] | viscosity [mPa·s]
278.15 K | 1006.09 | 1.53
283.15 K | 1005.64 | 1.321
288.15 K | 1005.07 | 1.154
293.15 K | 1004.14 | 1.015
298.15 K | 1002.96 | 0.9068
303.15 K | 1001.47 | 0.8105
308.15 K | 999.75 | 0.7363
313.15 K | 997.82 | 0.6641

O [water]
[2]
Details | mass density [kg/m3] | viscosity [mPa·s]
278.15 K | 999.96 | 1.521
283.15 K | 999.7 | 1.307
288.15 K | – | 1.135
293.15 K | – | 1.002
298.15 K | – | 0.8903
303.15 K | – | 0.7977
308.15 K | – | 0.719
313.15 K | – | 0.6532

O [water] + CO/N=C(\C(=O)N[C@@H]1C(=O)N2C(C(=O)O)=C(C[N+]3(C)CCCC3)CS[C@H]12)c1csc(N)n1.Cl.[Cl-]
[3]
Details | mass density [kg/m3] | viscosity [mPa·s]
278.15 K | 999.96 | 1.521
283.15 K | 999.7 | 1.307
288.15 K | – | 1.135
293.15 K | – | 1.002
298.15 K | – | 0.8903
303.15 K | – | 0.7977
308.15 K | – | 0.719
313.15 K | – | 0.6532
